How the values were obtained:
IP receptor = molecular target: T1, IP receptor (Homo sapiens, UniProt P43119); assay: IP receptor binding/cAMP in HEL cells ([3H]-iloprost binding, Assay 1; iloprost-induced cAMP production, Assay 2); details: compounds of about 40 to 90% purity, read-out: In vitro activity grade (IC50 class)
T1 construct: one million cells in 160 μl aliquot of cell suspension were put in a well of 96 well plate; host or cells: HEL 92.1.7 human erythroleukemia cells (whole cells)
Procedure, shortened: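 For binding (Assay 1), 1×10^6 HEL 92.1.7 cells in 50 mM Tris-HCl, 5 mM MgCl2, pH 7.5 were incubated with [3H]-iloprost (0.02 μCi) for 30 min at RT and filter-counted; a 100 μM iloprost solution defined non-specific binding. Compounds were of 40-90% purity.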

T1 sequence (P43119 whole entry): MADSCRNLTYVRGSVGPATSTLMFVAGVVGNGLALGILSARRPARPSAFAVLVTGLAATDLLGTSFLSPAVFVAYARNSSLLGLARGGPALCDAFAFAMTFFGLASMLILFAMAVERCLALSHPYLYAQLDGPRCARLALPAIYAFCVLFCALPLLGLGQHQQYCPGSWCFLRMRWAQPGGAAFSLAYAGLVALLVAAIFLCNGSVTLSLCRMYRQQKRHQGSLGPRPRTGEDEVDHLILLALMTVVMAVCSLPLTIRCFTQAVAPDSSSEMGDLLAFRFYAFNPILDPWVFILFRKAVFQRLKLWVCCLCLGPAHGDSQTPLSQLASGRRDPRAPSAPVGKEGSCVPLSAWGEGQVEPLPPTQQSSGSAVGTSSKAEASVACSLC

Row | SMILES | IC50 (IP receptor) | melting point
1 | O=C(O)C(Cc1ccccc1)Nc1cc(-c2ccc(-c3ccc(Oc4ccccc4)cc3)cc2)ncn1 (stereo not shown) [Example 11-11] | 100 to 1000 nM | 120 to 123 °C (dec.)
2 | O=C(O)[C@H](Cc1ccccc1)Nc1cc(-c2ccc(C#Cc3ccccc3)cc2)ncn1 [Example 9-1, N-{6-[4-(Phenylethynyl)phenyl]pyrimidin-4-yl}phenylalanine] | < 100 nM | 215 to 218 °C (dec.)
3 | CC(C)CC(Nc1cc(-c2ccc(OCc3ccccc3)cc2)ncn1)C(=O)O (stereo not shown) [Example 1-15] | 100 to 1000 nM | 244 to 246 °C
4 | O=C(O)C(Cc1ccccc1)Nc1cc(-c2ccc(OCc3ccccc3)c(F)c2)ncn1 (stereo not shown) [Example 1-47] | < 100 nM | 117 to 120 °C
5 | O=C(O)C(Cc1ccccc1)Nc1cccc(-c2ccc(OCc3ccc(F)cc3)cc2)c1 (stereo not shown) [Example 24-6] | 100 to 1000 nM | 175 to 178 °C
6 | CN(C)CCOc1cccc(C[C@H](Nc2cc(-c3ccc(OCc4ccccc4)cc3)ncn2)C(=O)O)c1 [Example 4-1, N-{6-[4-(Benzyloxy)phenyl]pyrimidin-4-yl}-3-[2-(dimethylamino)ethoxy]phenylalanine] | < 100 nM | 143.1 °C
7 | O=C(O)[C@H](Cc1ccccc1)Nc1cc(-c2ccc(/C=C/c3ccccc3)cc2)ncn1 [Example 7-1, N-(6-{4-[(E)-2-Phenylvinyl]phenyl}pyrimidin-4-yl)phenylalanine] | < 100 nM | 214 to 216 °C (dec.)
8 | O=C(O)[C@H](Cc1ccccc1)Nc1cc(-c2ccc(/C=N/Oc3ccccc3)cc2)ncn1 [Example 21-1, N-(6-{4-[(E)-(phenoxyimino)methyl]phenyl}pyrimidin-4-yl)phenylalanine] | < 100 nM | 152.8 °C
9 | C=CCC(Nc1cc(-c2ccc(OCc3ccccc3)cc2)ncn1)C(=O)O (stereo not shown) [Example 1-28] | < 100 nM | 135 to 137 °C
10 | O=C(O)C(Cc1ccccc1)Nc1cc(-c2ccc(OCc3cccc(O)c3)cc2)ncn1 (stereo not shown) [Example 2-14] | < 100 nM | 190 to 193 °C (dec.)
11 | O=C(Nc1ccc(-c2cc(N[C@@H](Cc3ccccc3)C(=O)O)ncn2)cc1)c1ccccc1 [Example 14-1, N-{6-[4-(Benzoylamino)phenyl]pyrimidin-4-yl}phenylalanine] | 100 to 1000 nM | 250 to 252 °C (dec.)
12 | O=C(O)C(Cc1ccccc1)Nc1cc(-c2cccc(OCc3ccccc3)c2)ncn1 (stereo not shown) [Example 1-43] | > 1000 nM | 150 to 152 °C
13 | O=C(O)[C@H](Cc1ccccc1)Nc1cc(-c2ccc(OCc3ccccc3)cc2)ncn1 [Example 1-50] | 100 to 1000 nM | 150 to 155 °C
14 | O=C(O)C(Cc1ccccc1)Nc1cc(-c2ccc(-c3cccc([N+](=O)[O-])c3)cc2)ncn1 (stereo not shown) [Example 11-9] | < 100 nM | 125 to 127 °C (dec.)
15 | O=C(O)C(Cc1ccccc1)Nc1cccc(-c2ccc(OCc3ccccc3)nc2)c1 (stereo not shown) [Example 25-2] | 100 to 1000 nM | 150 to 153 °C
16 | O=C(O)C(Cc1ccccc1)Nc1cc(-c2ccc(OCC3CCCCC3)cc2)ncn1 (stereo not shown) [Example 2-8] | < 100 nM | 118 to 120 °C
17 | O=C(O)C(Cc1ccccc1)Nc1cc(-c2ccc(OCCn3cccc3)cc2)ncn1 (stereo not shown) [Example 2-9] | < 100 nM | 209 to 211 °C
18 | C#CCC(Nc1cc(-c2ccc(OCc3ccccc3)cc2)ncn1)C(=O)O (stereo not shown) [Example 1-23] | < 100 nM | 155 °C
19 | CCCCC(Nc1cc(-c2ccc(OCc3cccc(OC)c3)cc2)ncn1)C(=O)O (stereo not shown) [Example 2-44] | < 100 nM | 115 to 118 °C

Row | SMILES | IC50 (IP receptor) | melting point
20 | O=C(O)C(Cc1ccccc1)Nc1cc(-c2ccc(OCC3CCC3)cc2)ncn1 (stereo not shown) [Example 2-15] | < 100 nM | 210 to 213 °C (dec.)
21 | O=C(O)C(Cc1ccccc1)Nc1cc(-c2ccc(OCCc3ccncc3)cc2)ncn1 (stereo not shown) [Example 2-27] | < 100 nM | 113 to 115 °C
22 | O=C(O)C(Cc1ccccc1)Nc1cncc(-c2ccc(OCc3ccccc3)cc2)n1 (stereo not shown) [Example 3-2] | > 1000 nM | 89 to 92 °C
23 | O=C(O)C(Cc1ccccc1)Nc1cccc(-c2ccc(OCCn3cccc3)cc2)c1 (stereo not shown) [Example 24-7] | < 100 nM | 182 to 185 °C
24 | O=C(O)C(Cc1ccccc1)Nc1cc(-c2ccc(CNCc3ccccc3)cc2)ncn1 (stereo not shown) [Example 19-2] | 100 to 1000 nM | 173 to 176 °C (dec.)
25 | O=Cc1c(N[C@@H](Cc2ccccc2)C(=O)O)ncnc1-c1ccc(OCc2ccccc2)cc1 [Example 22-1, N-{6-[4-(Benzyloxy)phenyl)-5-formylpyrimidin-4-yl}phenylalanine] | 100 to 1000 nM | > 300 °C
26 | COc1ccccc1-c1ccc(-c2cc(NC(Cc3ccccc3)C(=O)O)ncn2)cc1 (stereo not shown) [Example 11-10] | 100 to 1000 nM | 121 to 123 °C (dec.)
27 | O=C(O)C(Cc1ccccc1)Nc1cc(-c2ccc(OCc3ccccc3)cc2)ncn1 (stereo not shown) [Example 1-7] | < 100 nM | 175 to 178 °C
28 | O=C(O)C(Cc1ccccc1)Nc1cc(-c2ccc(Cc3ccc(Cl)cc3)cc2)ncn1 (stereo not shown) [Example 18-3] | 100 to 1000 nM | 105 to 107 °C
29 | O=C(O)C(Cc1ccccn1)Nc1cc(-c2ccc(OCc3ccccc3)c(F)c2)ncn1 (stereo not shown) [Example 1-46] | < 100 nM | 107 °C
30 | O=C(O)C(Cc1ccccc1)Nc1cc(-c2ccc(CN3CCc4ccccc4C3)cc2)ncn1 (stereo not shown) [Example 19-4] | > 1000 nM | 148 to 150 °C
31 | O=C(O)C(Cc1ccccc1)Nc1ncnc(-c2ccc(OCC3CC3)cc2)c1F (stereo not shown) [Example 1-36] | < 100 nM | 170 to 173 °C
32 | CCCCC(Nc1cc(-c2ccc(OCc3ccccc3F)cc2)ncn1)C(=O)O (stereo not shown) [Example 2-34] | < 100 nM | 85 to 90 °C
33 | Nc1ccc(CC(Nc2cc(-c3ccc(OCc4ccccc4)cc3)ncn2)C(=O)O)cc1 (stereo not shown) [Example 1-29] | < 100 nM | 145 °C
34 | O=C(O)C(CCc1ccccc1)Nc1cc(-c2ccc(OCc3ccccc3)cc2)ncn1 (stereo not shown) [Example 1-14] | < 100 nM | 226 to 228 °C
35 | O=C(O)C(Cc1ccc(O)cc1)Nc1cc(-c2ccc(OCc3ccccc3)cc2)ncn1 (stereo not shown) [Example 1-26] | < 100 nM | 233 to 236 °C
36 | O=C(O)[C@H](Cc1ccccc1)Nc1cccc(-c2ccc(OCc3ccccc3)cc2)c1 [Example 24-1, N-[4′-(Benzyloxy)biphenyl-3-yl]phenylalanine] | < 100 nM | 152 to 154 °C
37 | O=C(O)C(Cc1ccccc1)Nc1cc(-c2ccc(CCCc3ccccc3)cc2)ncn1 (stereo not shown) [Example 1-6] | < 100 nM | 112 to 114 °C
38 | COc1cccc(COc2ccc(-c3cccc(N[C@@H](Cc4ccccc4)C(=O)O)c3)cc2)c1 [Example 24-2, N-{4′-[(3-Methoxybenzyl)oxy]biphenyl-3-yl}phenylalanine] | < 100 nM | 159 to 162 °C

Source: patent US20060089371A1, “Phenyl or heteroaryl amino alkane derivatives as ip receptor antagonist” (Bayer HealthCare AG, priority 2002, published 2006)
